Drawing on patent US10000450B2, “N,N-substituted 3-aminopyrrolidine compounds useful as monoamines reuptake inhibitors” (OTSUKA PHARMACEUTICAL CO., LTD., priority 2005, dated 2018), this text covers melting point and IC50 for 30 compounds.

Counter-ions that a name gives are not always drawn.

A word on the melting point: it is the temperature, or range, at which the solid turns liquid.

Data set [1] addresses T1, Serotonin (5-HT) uptake into rat brain synaptosome (frontal cortex) (Rattus norvegicus, UniProt P31652).
T1 construct: used as crude synaptosome fractions; from tissue; host or cells: rat (male Wistar) frontal cortex, crude synaptosome fraction
Description: Inhibitory activity on serotonin (5-HT) uptake into rat brain synaptosome. The class given is biochemical. The following applies: tritium-labeled 5-HT 8 nM uptake, 10 min at 37° C., read-out: 50% inhibittory concentration. The procedure:
Pharmacological Test 1 Evaluation of Inhibitory Activity of Test Compound on Serotonin (5-HT) Uptake into Rat Brain Synaptosome
(§1) Male Wistar rats were decapitated and the brains were removed and the frontal cortices were dissected. The separated frontal cortices were homogenized in 20 volumes as weight of 0.32 M sucrose solution by a Potter-type homogenizer. The homogenate was centrifuged at 1000 g at 4° C. for 10 minutes, and the supernatant was then centrifuged at 20000 g at 4° C. for 20 minutes. The pellet was resuspended in incubation buffer (20 mM HEPES buffer (pH 7.4)) containing 10 mM glucose, 145 mM sodium chloride, 4.5 mM potassium chloride, 1.2 mM magnesium chloride, and 1.5 mM calcium chloride) and used as crude synaptosome fractions.
(§2) The uptake reaction mixture was suspended in a final volume of 200 μl containing pargyline (final concentration of 10 μM) and sodium ascorbate (final concentration of 0.2 mg/ml) in each well of 96-well-round-bottom-plate.
Solvent, unlabeled 5-HT, and serial diluted test compounds were added in each well, and synaptosome fraction of 1/10 volume of the final volume were added. After a 10 min preincubation at 37° C., the uptake was initiated by the addition of tritium-labeled 5-HT solution (final concentration of 8 nM) at 37° C. The uptake was stopped after 10 minutes by filtration under vacuum through a 96-well glass fiber filter plate. After washing the filter with cold physiological saline and drying up, Microscint-O (Perkin-Elmer) was added, and remained radioactivity on the filter was measured.
The total uptake activity with only solvent was determined as 100%, and the nonspecific uptake activity with unlabeled 5-HT (final concentration of 10 μM) was determined as 0%. The 50% inhibitory concentrations were calculated based on the concentrations of the test compounds and their inhibitory activities.

Data set [2] addresses T2, Norepinephrine (NE) uptake into rat brain synaptosome (hippocampus) (Rattus norvegicus, UniProt Q63380).
T2 construct: used as crude synaptosome fraction; from tissue; host or cells: rat (male Wistar) hippocampus, crude synaptosome fraction
Description: Inhibitory activity on norepinephrine (NE) uptake into rat brain synaptosome. As to conditions: tritium-labeled NE 12 nM uptake, 10 min at 37° C., read-out: 50% inhibitory concentration. The class given is biochemical. The method, then: Pharmacological Test 2 Evaluation of Inhibitory Activity of Test Compound on Norepinephrine (NE) Uptake into Rat Brain Synaptosome
as §1, with “hippocampi” for “frontal cortices”, “fraction.” for “fractions.”
The uptake reaction mixture was suspended in final volume of 200 μl containing pargyline (final concentration of 10 μM) and sodium ascorbate (final concentration of 0.2 mg/ml) in each well of 96-well-round-bottom-plate.
Solvent, unlabeled NE, and serial diluted test compounds were added to each well, and synaptosome fraction of 1/10 volume of the final volume were added. After 10 minutes preincubation at 37° C., the uptake was initiated by the addition of tritium-labeled NE solution (final concentration of 12 nM) at 37° C. The uptake was stopped after 10 minutes by filtration under vacuum through a 96-well glass fiber filter plate. After washing the filter with cold physiological saline and drying up, Microscint-0 (Perkin-Elmer) was added, and remained radioactivity on the filter was measured.
The total uptake activity with only solvent was determined as 100%, and the nonspecific uptake activity with unlabeled NE (final concentration of 10 μM) was determined as 0%. The 50% inhibitory concentrations were calculated based on the concentrations of the test compounds and their inhibitory activities.

The target in data set [3] is T3, Dopamine (DA) uptake into rat brain synaptosome (striatum) (Rattus norvegicus, UniProt P23977).
T3 construct: used as crude synaptosome fraction; from tissue; host or cells: rat (male Wistar) striatum, crude synaptosome fraction
The data set can be described thus: Inhibitory activity on dopamine (DA) uptake into rat brain synaptosome. The class given is biochemical. As to conditions: tritium labeled DA 2 nM uptake, 10 min at 37° C., read-out: 50% inhibitory concentration. The procedure: Pharmacological Test 3 Evaluation of Inhibitory Activity of Test Compound on Dopamine (DA) into Rat Brain Synaptosome
as §1, with “striata” for “frontal cortices”, “fraction.” for “fractions.”
as §2
Solvent, unlabeled DA, and serial diluted test compounds were added in each well, and synaptosome fraction of 1/10 volume of the final volume were added. After 10-min preincubation at 37° C., the uptake was initiated by the addition of tritium labeled DA solution (final concentration of 2 nM) at 37° C. The uptake was stopped after 10 minutes by filtration under vacuum through a 96-well glass fiber filter plate. After washing the filter with cold physiological saline and drying up, Microscint-0 (Perkin-Elmer) was added and remained radioactivity on the filter was measured.
The uptake activity with only solvent was determined as 100%, and the nonspecific uptake activity with unlabeled DA (final concentration of 10 μM) was determined as 0%. The 50% inhibitory concentrations were calculated based on the concentrations of the test compounds and their inhibitory activities.

T3 sequence (P23977 whole entry): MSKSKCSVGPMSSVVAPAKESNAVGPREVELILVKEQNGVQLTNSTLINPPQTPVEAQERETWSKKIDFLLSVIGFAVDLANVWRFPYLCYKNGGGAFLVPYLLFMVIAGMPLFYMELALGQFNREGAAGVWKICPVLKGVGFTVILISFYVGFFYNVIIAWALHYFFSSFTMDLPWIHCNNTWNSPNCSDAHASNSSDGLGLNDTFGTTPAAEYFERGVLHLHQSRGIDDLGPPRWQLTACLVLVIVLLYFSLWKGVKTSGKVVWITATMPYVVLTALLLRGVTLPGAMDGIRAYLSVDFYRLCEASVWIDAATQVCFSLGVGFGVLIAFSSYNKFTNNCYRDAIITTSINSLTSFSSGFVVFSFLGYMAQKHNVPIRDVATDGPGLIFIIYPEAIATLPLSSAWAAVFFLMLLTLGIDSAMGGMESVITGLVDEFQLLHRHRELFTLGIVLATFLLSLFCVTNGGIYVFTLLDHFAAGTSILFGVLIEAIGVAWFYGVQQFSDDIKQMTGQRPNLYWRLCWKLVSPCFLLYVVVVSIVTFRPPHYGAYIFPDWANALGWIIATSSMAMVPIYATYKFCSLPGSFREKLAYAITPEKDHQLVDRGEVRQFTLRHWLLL
T1 sequence (P31652 whole entry): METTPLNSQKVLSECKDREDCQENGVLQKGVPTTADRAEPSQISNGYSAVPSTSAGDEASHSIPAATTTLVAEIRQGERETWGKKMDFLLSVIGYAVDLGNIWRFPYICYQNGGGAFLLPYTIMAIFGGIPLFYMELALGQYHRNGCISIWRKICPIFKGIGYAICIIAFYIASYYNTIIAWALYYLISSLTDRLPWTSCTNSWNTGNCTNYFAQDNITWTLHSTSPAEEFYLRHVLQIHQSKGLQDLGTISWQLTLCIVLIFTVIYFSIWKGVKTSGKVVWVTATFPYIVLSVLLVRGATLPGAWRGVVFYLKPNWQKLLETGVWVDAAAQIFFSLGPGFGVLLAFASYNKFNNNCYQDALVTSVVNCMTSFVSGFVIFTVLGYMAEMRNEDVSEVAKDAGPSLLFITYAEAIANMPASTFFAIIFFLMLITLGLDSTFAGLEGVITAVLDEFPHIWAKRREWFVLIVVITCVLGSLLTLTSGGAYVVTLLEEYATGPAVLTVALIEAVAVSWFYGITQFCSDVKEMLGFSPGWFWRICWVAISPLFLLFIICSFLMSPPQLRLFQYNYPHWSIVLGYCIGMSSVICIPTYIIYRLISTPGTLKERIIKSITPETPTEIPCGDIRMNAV
T2 sequence (Q63380 1-617): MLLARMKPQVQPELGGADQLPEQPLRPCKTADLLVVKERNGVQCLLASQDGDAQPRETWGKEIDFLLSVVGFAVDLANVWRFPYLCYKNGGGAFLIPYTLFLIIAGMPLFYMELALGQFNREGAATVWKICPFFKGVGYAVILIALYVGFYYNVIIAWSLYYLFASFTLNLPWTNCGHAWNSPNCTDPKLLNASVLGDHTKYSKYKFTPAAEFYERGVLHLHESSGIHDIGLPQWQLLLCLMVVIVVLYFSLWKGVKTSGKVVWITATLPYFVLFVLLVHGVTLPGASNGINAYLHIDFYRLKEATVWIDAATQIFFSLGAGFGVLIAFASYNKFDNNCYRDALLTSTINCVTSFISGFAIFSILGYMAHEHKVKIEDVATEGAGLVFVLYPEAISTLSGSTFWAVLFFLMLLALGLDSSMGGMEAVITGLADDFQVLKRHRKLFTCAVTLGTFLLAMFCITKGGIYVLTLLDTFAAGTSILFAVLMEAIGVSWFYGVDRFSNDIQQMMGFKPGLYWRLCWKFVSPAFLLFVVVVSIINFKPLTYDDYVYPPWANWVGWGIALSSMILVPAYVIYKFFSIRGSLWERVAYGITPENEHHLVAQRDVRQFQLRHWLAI

`Fc1cccc(N(c2ccc(C(F)(F)F)cc2)[C@H]2CCNC2)c1.O=C(O)/C=C/C(=O)O.O=C(O)/C=C/C(=O)O` came in with a melting point of 144 to 146.2 °C.
On the same count and under the same terms, the value for `Fc1ccc(N(c2ccc(Cl)nc2)[C@H]2CCNC2)cc1Cl` (as salt: fumarate) [Example 244] was 136 to 137 °C.
Same read-out and setting: the value for `Fc1ccc(N(c2ccc3ccsc3c2)[C@H]2CCNC2)cc1` (as salt: fumarate) [Example 114] was 131.6 to 133.3 °C.
Still for that read-out and setting: the value for `N#Cc1ccc(N(c2ccc(F)c(Cl)c2)[C@H]2CCNC2)cc1` (as salt: fumarate) [Example 73] was 174 to 175 °C; that for `Fc1ccc(N(c2nccs2)[C@H]2CCNC2)cc1Cl` (as salt: fumarate) [Example 131] was 128 to 129.9 °C.
The compound `CCN1CCN(c2ccc(N(c3ccc(F)c(Cl)c3)[C@H]3CCNC3)nc2)CC1` (as salt: hydrochloride) [Example 201] displayed a melting point of 208 to 211 °C.
Take `Fc1ccc(N(c2ccc3ncccc3c2)[C@H]2CCNC2)cc1Cl` [Example 913]: the IC50 was found to be 0.8 nM in data set [1], 0.8 nM in data set [2] and 6.5 nM in data set [3].
As for `Fc1ccc(N(c2ccsc2)[C@H]2CCNC2)cc1Cl` (as salt: fumarate) [Example 278], the melting point was 135 to 136 °C.
`c1ccc(N(c2ccc3sccc3c2)[C@H]2CCNC2)cc1` (as salt: hydrochloride) [Example 116]: the melting point was in the range of 158 to 160 °C.
`Fc1ccc(N(c2ccsc2)[C@H]2CCNC2)cc1Cl` [Example 278]: the results for the IC50 in data set [1], in data set [2] and in data set [3] were 2.2 nM, 0.3 nM and 34.7 nM, respectively.
In turn, `Clc1ccc(N(c2ccncc2)[C@H]2CCNC2)cc1Cl` (as salt: salt) [Example 273] had a melting point of 229 to 231 °C.
Regarding `Fc1cncc(N(c2ccc(F)c(Cl)c2)[C@H]2CCNC2)c1` [Example 894], the results for the IC50 in data set [1], in data set [2] and in data set [3] were 2.6 nM, 0.3 nM and 9.4 nM, respectively.
In turn, `c1ccc(N(c2ccc3sccc3n2)[C@H]2CCNC2)cc1` (as salt: hydrochloride) [Example 934] displayed a melting point of 241.5 to 243.5 °C.
Still for that read-out and setting: as for `Fc1ccc(N(c2ccc(Cl)c(Cl)c2)[C@H]2CCNC2)nc1` (as salt: hydrochloride) [Example 961], the figure is 96 to 98 °C; as for `Fc1ccc(N(c2ccccc2)[C@H]2CCNC2)cc1` (as salt: fumarate) [Example 20], 143 to 145 °C.
In turn, `Clc1ccc(N(c2cnccn2)[C@H]2CCNC2)cc1Cl` (as salt: hydrochloride) [Example 963] returned a melting point of 120 to 124 °C.
`Cc1cc(N(c2cncc(F)c2)[C@H]2CCNC2)ccc1F` [Example 895]: the IC50 in data set [1] turned out to be 3 nM; in data set [2] it was 0.5 nM; in data set [3], 38 nM.
In the case of `Cc1ccc(N(c2ccccc2)[C@H]2CCNC2)cc1` (as salt: fumarate) [Example 22], the melting point was 141.7 to 143.8 °C.
For `CS(=O)(=O)O.CS(=O)(=O)O.Fc1ccc(N(c2cccnc2)[C@H]2CCNC2)cc1Cl` [Example 7, (3-chloro-4-fluorophenyl) pyridin-3-yl-(S)-pyrrolidin-3-ylamine dimethanesulfonate], the melting point lay within 194 to 195 °C. For the same compound, the IC50 in data set [1] is 3 nM. Moreover, the IC50 in data set [2] came out at 0.4 nM. Besides, the IC50 in data set [3] was determined as 45 nM.
The compound `CSc1ccc(N(c2ccccc2)[C@H]2CCNC2)cc1` (as salt: fumarate) [Example 19] displayed a melting point of 152.9 to 155.5 °C.
For the compound `Clc1ccc(N(c2cccnc2)[C@H]2CCNC2)cc1Cl` (as salt: hydrochloride) [Example 242], the melting point fell in the range of 108 to 110 °C.
In the case of `CC(C)(O)CN(c1ccc(F)c(Cl)c1)[C@H]1CCNC1` [Example 967], the figures for the IC50 in data set [1], in data set [2] and in data set [3] were 0.9 nM, 0.1 nM and 25.4 nM, respectively.
In the case of `Fc1ccc(N(c2ccc(-c3cnco3)cc2)[C@H]2CCNC2)cc1Cl` [Example 90], the melting point was 115 to 117 °C. Moreover, in data set [1], the IC50 was determined as 1.2 nM. For the same compound, the IC50 in data set [2] is 0.7 nM. In data set [3], the IC50 amounted to 4.8 nM.
Compound `Fc1ccc(N(c2ccc3cnsc3c2)[C@H]2CCNC2)cc1Cl` (as salt: hydrochloride) [Example 930] yielded a melting point of 150 to 156 °C.
With `Fc1ccc(N(c2ccc3ccsc3c2)[C@H]2CCNC2)cc1` [Example 114], the values for the IC50 in data set [1], in data set [2] and in data set [3] were 0.8 nM, 0.4 nM and 32.5 nM, respectively.
The like results for `Fc1ccc(N(c2ccccn2)[C@H]2CCNC2)cc1Cl` [Example 154] were, in that order, 0.8 nM, 0.2 nM and 9.2 nM.
`Fc1ccc(N(c2ccc3cnsc3c2)[C@H]2CCNC2)cc1Cl` [Example 930]: the IC50 in data set [1] is 0.8 nM; in data set [2], 1 nM; in data set [3] it was 6.8 nM.
With `Clc1ccc(N(c2ccccn2)[C@H]2CCNC2)cc1Cl` (as salt: hydrochloride) [Example 188], the melting point was 135 to 138 °C.
For `Fc1ccc(N(c2ccc(N3CCNCC3)cn2)[C@H]2CCNC2)cc1Cl` (as salt: hydrochloride) [Example 200], the melting point was in the range of 212 to 215 °C.
Still for that read-out and setting: the value for `Fc1ccc(N(c2ccccn2)[C@H]2CCNC2)cc1Cl` (as salt: fumarate) [Example 154] was 152.4 to 154.4 °C.
